In brackets after ≈: the same amount, converted by molar mass. Read-outs that look alike come from different tables or passages of the source.
How the values were obtained:
Plasma stability = details: % remaining in human plasma after a 5-hour incubation
C. albicans CaCi-2 [1] = assay: CaCi-2 growth inhibition in the presence of 8 μg/ml fluconazole (Alamar Blue); assay type: cell-based, Candida albicans; details: in the presence of fluconazole; read-out: Target Potency (μM) Mean ± S.E.M CaCi-2^a IC50
Procedure: Fluconazole was obtained from Sequoia Research Products, Ltd. and prepared in a 2 mg/ml stock solution in phosphate buffered saline (PBS). […] PBS (Catalog No. 21-040-CV) without calcium and magnesium was obtained from Cellgro. Penicillin/Streptomycin (Pen/Strep) was obtained from Gibco and prepared 100× in PBS.
RPMI medium (1×) was prepared by dissolving 10.4 g powdered medium in 800 ml water. A buffer of 34.52 g MOPS was added. While stirring, pH was adjusted to 7.0 with 10 N NaOH. Next, 10 ml uridine solution and 50 ml glucose solution were added. The final volume was adjusted to 1000 ml, and filter sterilized.
The following yeast strains were used in this study: C. albicans CaCi-2. Fungal inoculum was prepared as follows: 500 μl of strain was inoculated from cryopreserved stock into a 250-ml shaker flask containing 30 ml growth medium and shaken overnight at 30° C. The optical density (OD 600) of 1 ml fungal culture in a cuvette was read using a standard optical density reader (Eppendorf BioPhotometer Plus), with growth medium as a background blank. The desired volume of fungal inoculums was diluted to desired volume of fungal inoculums according to the following formula: (1/OD measured)×(Desired Final Volume of Inoculum)×0.3=Volume of fungal culture (μl) to add to desired volume of growth medium. When added to media in wells, this yields a calculated starting OD of the fungal inoculum of 0.00015.
Fluconazole stock solution was added to the fungal inoculum to achieve 8 μg/ml. Pen/Strep was added to the media to a 1% concentration (v/v). A Thermo Combi nL was used to dispense 20 μl/well of assay media into all wells. Geldanamycin was dispensed in positive control wells using Thermo Combi nL for a final concentration of 3 μM. Then, 100 nl of test compound was pinned from compound plates into assay plates using a CyBi-Well pin tool. A further 20 μl/well of culture was dispensed into the assay media in all wells. The plates were incubated in a humidified (90% humidity) Liconic incubator at 37° C. without agitation for 48 hours. Alamar Blue was diluted 1:40 in Ca/Mg-free PBS. To all plates, […] of the diluted Alamar Blue was added to the plates to a final dilution factor of 1:200. The plates were incubated for an additional 2 hours. Then, Relative Fluorescence Intensity (RFU) of each well was read on standard plate reader as a measure of relative fungal growth.

C. albicans CaCi-8 = assay: microbe, parasite or virus in culture; assay type: cell-based, Candida albicans; details: in the presence of fluconazole; read-out: Target Potency (μM) Mean ± S.E.M CaCi-8^a IC50
Procedure: This subset was re-subjected to the primary assay and was also tested concurrently in two secondary assays. Secondary assay 1 measured chemosensitization of the more resistant CaCi-8 strain. Secondary assay 2 eliminated anything with inherently antifungal activity. […] A final assay (secondary assay 3) was incorporated to discard any compound displaying toxicity to mammalian fibroblasts. […] This screening campaign is also illustrated in FIG. 3B.
Those that inhibited growth in the resistant strain were also tested for toxicity against Candida in the absence of fluconazole and for toxicity against mammalian cells using a fluorescence reporter assay. The positive control for screening in the Candida and mammalian cell assays was the Hsp90 inhibitor geldanamycin (acting in concert with fluconazole; FIG. 4). Compounds that passed these four hurdles were binned through use of a Saccharomyces assay to determine whether the mechanism of action might be through the Hsp90 pathway, the calcineurin pathway, or an uncategorized mechanism.

[2] = tested on: NIH-3T3 mammalian fibroblasts; assay: Counterscreen mammalian cell toxicity assay (fibroblast toxicity); assay type: cell-based, murine; details: for ** CaCi-2 to anti-target fold selectivity: fibroblast IC50 over CaCi-2 IC50 with fluconazole; for IC50: footnote: in the absence of fluconazole, read-out: Anti-target Potency (μM) Mean ± S.E.M Fibroblasts^b IC50
Plasma protein binding = details: % bound in human plasma
C. albicans CaCi-2 [3] = assay: Secondary single-agent (no-fluconazole) activity assay; assay type: cell-based, Candida albicans; details: read-out: Target Potency (μM) Mean ± S.E.M CaCi-2^b IC50
Procedure: Clear, flat-bottom, black, 384-well plates were obtained from Corning. […] Pen/Strep was obtained from Gibco and prepared 100× in PBS. Fluconazole was obtained from Sigma and prepared in 2 mg/ml stock solution in PBS. Alamar Blue was obtained from Biosource International (Catalog No. DAL1100). Phosphate buffered solution (PBS) without calcium and magnesium was obtained from Cellgro.
Fungal inoculum was prepared as follows: 500 μl of yeast was inoculated from cryopreserved stock into a 250-ml shaker flask containing 30 ml growth medium and shaken overnight (16 hours) at 30° C. The culture was spun down, and the broth was poured off and washed with RPMI medium. The culture was spun down again, and the broth was poured off and resuspended in RPMI medium. The OD 600 of 1 ml of fungal culture in a cuvette was read using a standard optical density reader with growth medium as a background blank. The desired volume of fungal inoculum was diluted to starting OD of the fungal inoculum of 0.00015 A600.
Pen/Strep was added to the media to a final 1% concentration. A Combi NL (Thermo) was used to dispense 20 μl/well of assay media into all wells. Geldanamycin (1.5 mM) and fluconazole (0.2 mg/ml) were mixed for the positive control. Then, 80 nl of positive control solution was dispensed into the positive control wells using Thermo Combi nL for a final concentration of 3 μM geldanamycin and 8 μg/ml fluconazole. Then, 100 nl of test compound were pinned from the compound plates into assay plates using a CyBi-Well pin tool. A further 20 μl/well of RPMI synthetic defined medium culture was dispensed into 384-well, black plates. Fungal suspension (20 μl/well) was dispensed into all wells. The plates were incubated in a humidified (90% humidity) Liconic incubator at 37° C. without agitation for 48 hours. Alamar Blue Reagent was diluted 1:40 in Ca/Mg-free PBS. To all plates, 6.4 μl/well of the diluted Alamar Blue was added to the plates to a final dilution factor of 1:200. The plates were incubated for 2 hours at room temperature. Next, RFU of wells was read on a standard plate reader as a measure of relative fungal growth.

PBS solubility = details: PBS

Row | SMILES | Plasma Stability (Plasma stability) | IC50 (C. albicans CaCi-2 [1]) [µM] | IC50 (C. albicans CaCi-8) [µM] | ** CaCi-2 to anti-target fold selectivity [2] | IC50 [2] [µM] | Plasma Protein Binding (Plasma protein binding) [%] | IC50 (C. albicans CaCi-2 [3]; in the absence of fluconazole) [µM] | PBS Solubility (PBS solubility) | IC50 ([2]; Mus musculus, NIH3T3) [µM] | solubility (PBS solubility; aqueous buffer) [µM] | IC50 (C. albicans CaCi-2 [3]; Candida albicans, CACI2, in the absence of fluconazole) [µM] | IC50 (C. albicans CaCi-2 [3]) [µM]
1 | COC(=O)Cn1nc(-c2ccccc2)c2cc(C)ccc21 [Compound 49835874] | < 1.0% | 3.28 | 5.33 | 21 | 69.5 | 95 | > 26 |  |  |  |  | 
2 | COC(=O)Cn1nc(I)c2ccccc21 [Compound 49835832] | 1.3% |  | 18.8 |  | 0.53 | 98 |  | 143.5 µM |  |  |  | 
3 | COC(=O)Cn1ncc2ccccc21 [Compound 49835852] | < 1.0% |  |  |  | 0.74 | < 1.0 |  |  |  |  |  | 
4 | COC(=O)Cn1nc(-c2ccccc2)c2ccc(Cl)cc21 [Compound 49835818] | 90% | 3.79 | 8.57 | 7.9 | 29.9 | 18 | > 26 |  |  |  |  | 
5 | O=C1OCCC1n1nc(-c2ccccc2)c2ccccc21 (stereo not shown) [Compound 49835834] | PBS Solubility: <1.0 μM Plasma Protein Binding: ND Plasma Stability: <1.0% Purity (UPLC): 65% |  | > 26 |  |  |  | > 26 | PBS Solubility: <1.0 μM Plasma Protein Binding: ND Plasma Stability: <1.0% Purity (UPLC): 65% |  |  |  | 
6 | COC(=O)Cn1nc(-c2ccc(C(F)(F)F)cc2)c2ccccc21 [Compound 49835854] | 17% |  | > 26 |  | 0.68 | 97 | > 26 |  |  |  |  | 
7 | COC(=O)Cn1nc(-c2ccccc2C)c2ccccc21 [Compound 49835865] | < 1.0% | 5.5 | 7.25 |  |  | < 1.0 | > 26 |  |  |  |  | 
8 | COC(=O)Cn1nc(-c2ccccc2)c2cc(F)ccc21 [Compound 49835889] | 1.0% | 4.63 | 6.98 |  |  | > 96 | > 26 |  |  |  |  | 
9 | COC(=O)Cn1nc(-c2ccccc2)c2ccc(C)cc21 [Compound 49835872] | 6.5% | 3.14 | 9.62 | 10 | 31.6 | 98 | > 26 |  |  |  |  | 
10 | COC(=O)Cn1nc(-c2cncnc2)c2ccccc21 [Compound 49835858] | < 1.0% |  |  |  |  |  |  |  | > 6 | 155 (≈ 41.5 µg/mL) | > 26 | 
11 | COC(=O)Cn1nc(-c2ccc(F)cc2)c2ccccc21 [Compound 49835876] | < 1.0% | 6.26 | 10.2 |  |  | 93 | > 26 |  |  |  |  | 
12 | COC(=O)Cn1nc(-c2ccccc2OC)c2ccccc21 [Compound 49835850] | < 1.0% | 6.21 | 10.2 | 0.17 | 1.54 | 92 | > 26 |  |  |  |  | 
13 | COC(=O)Cn1nc(-c2cccc(C)c2)c2ccccc21 [Compound 49835823] | 4.7% | 0.65 | 1.34 |  |  | 98 | > 26 |  |  |  |  | 
14 | O=C(Cn1nc(-c2ccccc2)c2ccccc21)N1CCc2ccccc2C1 [Compound 20877557] | 97% |  | > 26 |  |  | > 99 | > 26 | < 1.0 µM |  |  |  | 
15 | CN(C)C(=O)Cn1nc(-c2ccccc2)c2ccccc21 [Compound 49835882] | 98% |  | > 26 |  |  | 98 |  | 325.5 µM |  |  |  | > 26
16 | COC(=O)[C@@H](C)n1nc(-c2ccccc2)c2ccccc21.COC(=O)[C@H](C)n1nc(-c2ccccc2)c2ccccc21 [Compound 49835813] | 61% | 6.56 ± 0.79 | 15.8 |  |  | > 99 | > 26 | < 1.0 µM |  |  |  | 
17 | COC(=O)Cn1nc(-c2ccccc2)c2ccc(F)cc21 [Compound 49835815] | 1.1% | 5.1 | 8.34 |  |  | 97 | > 26 |  |  |  |  | 
18 | COC(=O)CCn1nc(-c2ccccc2)c2ccccc21 [Compound 49835835] | 74% |  | > 26 |  |  | > 99 | > 26 | < 1.0 µM |  |  |  | 
19 | c1ccc(-c2n[nH]c3ccccc23)cc1 [Compound 300385] | > 99% | 3 | > 26 |  |  | 98 | > 26 |  |  |  |  | 
20 | COC(=O)Cn1nc(-c2cccc(OC)c2)c2ccccc21 [Compound 49835877] | 2.6% | 0.44 | 1.21 |  | > 26 | 95 | > 26 |  |  |  |  | 
21 | CNC(=O)Cn1nc(-c2ccccc2)c2ccccc21 [Compound 13330955] | > 99% |  | > 26 |  |  | 93 | > 26 | < 18.5 µM |  |  |  | 
22 | CCC(=O)Cn1nc(-c2ccccc2)c2ccccc21 [Compound 49835816] | 98% |  | > 26 |  |  | 99 |  | < 1.0 µM |  |  |  | > 26
23 | COC(=O)Cn1nc(-c2ccccc2)c2ccccc21 [Compound 3243873] | < 1.0% | 1.86 ± 0.99 | 2.53 ± 1.13 |  |  | 96 | > 26 |  |  |  |  | 

From patent US9738610B2, “Indazole derivatives and uses thereof” (Whitehead Institute for Biomedical Research, priority 2012, dated 2017)
